ChEMBL document CHEMBL4270556, “Current progress on antioxidants incorporating the pyrazole core” (Eur J Med Chem, 2018)
In brackets after ≈: the same amount, converted by molar mass.

What was measured:
[1] = Antioxidant activity assessed as DPPH radical scavenging activity at 30 to 50 ug/ml relative to control; type: functional
[2] = Antioxidant activity assessed as radical scavenging activity at 30 to 50 ug/ml relative to control; type: functional
[3] = Antioxidant activity assessed as DPPH radical scavenging activity at 10^-3 M relative to control; type: functional
[4] = Antioxidant activity assessed as DPPH radical scavenging activity at 20 ug/ml relative to control; type: functional
[5] = Antioxidant activity assessed as nitric oxide radical scavenging activity at 100 mM after 150 mins in presence of sodium nitroprusside relative to control; type: functional
[6] = Antioxidant activity assessed as DPPH radical scavenging activity at 100 mM after 30 mins relative to control; type: functional
[7] = Antioxidant activity assessed as DPPH radical scavenging activity after 20 mins by UV absorbance method relative to control; type: functional
[8] = Antioxidant activity assessed as inhibition of lipid peroxidation relative to control; type: functional; conditions: dose or concentration not given here
[9] = Antioxidant activity assessed as inhibition of lipid peroxidation; type: functional
[10] = Antioxidant activity assessed as hydroxyl radical scavenging activity; type: functional
[11] = Antioxidant activity assessed as DPPH radical scavenging activity at 10 ug/ml after 20 mins by UV absorbance method relative to control; type: functional
[12] = Antioxidant activity assessed as DPPH radical scavenging activity at 4 mM relative to control; type: functional
[13] = Antioxidant activity assessed as radical scavenging activity; type: functional
[14] = Antioxidant activity assessed as inhibition of DPPH radical at 100 ug/ml relative to control; type: functional
[15] = Antioxidant activity assessed as ferric ion reducing activity after 20 mins in presence of potassium ferricyanide by FRAP assay relative to control; type: functional; design: scale not given: the % may be the effect or the level left
[16] = Antioxidant activity assessed as DPPH radical scavenging activity at 80 ug/ml relative to control; type: functional
[17] = Antioxidant activity assessed as DPPH radical scavenging activity at 40 ug/ml relative to control; type: functional
[18] = Antioxidant activity assessed as DPPH radical scavenging activity at 60 ug/ml relative to control; type: functional
THP-1 = experiment: Antioxidant activity in human THP1 cells assessed as inhibition of macrophage-mediated LDL oxidation after 24 hrs in presence of CuSO4 by TBARS assay; type: functional, cell-based; conditions: THP-1, 24 h

COc1ccc(C2C(c3ccc(F)cc3)=NN(c3ccccc3)C2C#N)cc1 (stereo not given)
Activity [1]: < 60%

COc1ccc(C2=NN(c3ccccc3)[C@H]3C(=O)N(c4ccccc4)C(=O)[C@@H]23)cc1OC
Activity [2]: < 55%

O=C(Nc1ccccc1)NS(=O)(=O)c1ccc(N2N=C(c3ccco3)CC2c2cnn(-c3ccccc3)c2)cc1 (stereo not given)
Activity [3]: 25%

CCOC(=O)C1=C(N)Oc2c(c(C)nn2C(=O)c2ccncc2)C1c1c(-c2ccc(C)cc2)[nH]c2ccc(Cl)cc12 (stereo not given)
Activity [4]: 66.6 to 76.1%

O=C(/C=C/c1cn(-c2ccccc2)nc1-c1cccc([N+](=O)[O-])c1)c1cccc(NC(=O)c2ccc(F)cc2)c1
Activity [5]: 32.4 to 77.9% | Activity [6]: 33.3%

Cc1ccc(N2N=C(c3ccccc3)CC2Cn2cnc3c(N4CCCC4)ncnc32)cc1 (stereo not given)
Activity [7]: 43 to 44% | inhibition [8]: 49%

Cc1ccc(-c2cc(C(F)(F)F)nn2-c2ccc(S(N)(=O)=O)cc2)cc1 [CELECOXIB]
IC50 [9]: 1990 µM | IC50 [10]: 1970 µM

O=C(c1ccccc1)N1N=C(Cn2c3ccccc3c3nc4cc(Cc5ccc6nc(-c7ccccc7)c(-c7ccccc7)nc6c5)ccc4nc32)CC1c1ccc(F)cc1 (stereo not given)
Activity [11]: 45.5%

COc1ccc(C2=NN(c3ccccc3)C(C#N)C2c2ccc(OC)cc2)cc1 (stereo not given)
Activity [1]: < 45%

O=C(c1ccc(Cl)cc1)N1N=C(Cn2c3ccccc3c3nc4cc(Cc5ccc6nc(-c7ccccc7)c(-c7ccccc7)nc6c5)ccc4nc32)CC1c1ccc(Cl)cc1 (stereo not given)
Activity [11]: 58.3%

Clc1ncnc2c1ncn2CC1CC(C2=NNC(Cn3cnc4c(Cl)ncnc43)C2)=NN1 (stereo not given)
Activity [7]: 62 to 79%

O=C(Nc1ccc(Cl)cc1)NS(=O)(=O)c1ccc(N2N=C(c3ccco3)CC2c2cnn(-c3ccccc3)c2)cc1 (stereo not given)
Activity [3]: 16%

Oc1c(Cl)cc(Cl)cc1C1Nc2ccccc2-c2cc(-c3ccccc3)nn21 (stereo not given)
Activity [12]: 99%

Nc1[nH]nc(NCc2ccccc2)c1-c1ccc([N+](=O)[O-])cc1
IC50 [13]: 800 µg/mL (≈ 2590 µM)

COc1cc(C2=NN(c3ccccc3)[C@H]3C(=O)N(c4ccccc4)C(=O)[C@@H]23)cc(OC)c1OC
Activity [2]: < 55%

CCOC(=O)c1c(C)nn(-c2cccc(Cl)c2)c1-c1cccc(Cl)c1
inhibition [14]: 22.2 to 49.9%

Cc1ccc(N2N=C(c3ccccc3)CC2Cn2cnc3c(N4CCOCC4)ncnc32)cc1 (stereo not given)
Activity [7]: 43 to 44% | inhibition [8]: 5.8%

Cc1ccc(N2N=C(c3ccccc3)CC2Cn2cnc3c(Cl)ncnc32)cc1 (stereo not given)
Activity [7]: 20% | inhibition [8]: 58%

COc1ccc(-c2nn(-c3ccccc3)cc2/C=C/C(=O)c2cccc(NC(=O)c3ccc(F)cc3)c2)cc1
Activity [5]: 32.4 to 77.9% | Activity [15]: 44.4 to 55.5%

Cc1ccc(-c2nn(-c3ccccc3)cc2/C=C/C(=O)c2cccc(NC(=O)c3ccc(F)cc3)c2)cc1
Activity [5]: 32.4 to 77.9% | Activity [15]: 44.4 to 55.5% | Activity [6]: 36.8 to 42.3%

CCOC(=O)c1c(C)nn(-c2cccc(Cl)c2)c1-c1ccc([N+](=O)[O-])cc1
inhibition [14]: 22.2 to 49.9%

O=C1[C@H]2C(c3ccccc3)=NN(c3ccccc3)[C@H]2C(=O)N1c1ccc(Cl)cc1
Activity [2]: < 40%

COc1ccc(C2C(c3ccc(Cl)cc3)=NN(c3ccccc3)C2C#N)cc1 (stereo not given)
Activity [1]: < 60%

NS(=O)(=O)c1ccc(-n2nc(-c3cccs3)cc2-c2cnn(-c3ccccc3)c2)cc1
Activity [3]: 12%

CCOC(=O)C1=C(N)Oc2c(c(C)nn2C(=O)c2ccncc2)C1c1c(-c2ccccc2)[nH]c2ccccc12 (stereo not given)
Activity [16]: 70.2% | Activity [17]: 66.6 to 76.1% | Activity [18]: 74.5%

O=[N+]([O-])c1cccc(C2Nc3ccccc3-c3cc(-c4ccccc4)nn32)c1 (stereo not given)
Activity [12]: 96%

CC(C)(C)c1cc(C2=NNC(c3cc(C(C)(C)C)c(O)c(C(C)(C)C)c3)C2)cc(C(C)(C)C)c1O (stereo not given)
IC50 (THP-1): 0.1 µM

COc1ccc(C2C(c3ccc(C#N)cc3)=NN(c3ccccc3)C2C#N)cc1 (stereo not given)
Activity [1]: < 60%

COc1ccc(C2C(c3ccco3)=NN(c3ccccc3)C2C#N)cc1 (stereo not given)
Activity [1]: < 45%

CCOC(=O)C1=C(N)Oc2c(c(C)nn2C(=O)c2ccncc2)C1c1c(-c2ccc(C)cc2)[nH]c2ccccc12 (stereo not given)
Activity [16]: 76.1% | Activity [4]: 80.1% | Activity [17]: 79.6% | Activity [18]: 76.1%

NS(=O)(=O)c1ccc(N2N=C(c3cccs3)CC2c2cnn(-c3ccccc3)c2)cc1 (stereo not given)
Activity [3]: 29%

CC(C)(Sc1cc(C(C)(C)C)c(O)c(C(C)(C)C)c1)Sc1cc(C(C)(C)C)c(O)c(C(C)(C)C)c1 [PROBUCOL]
IC50 (THP-1): 0.6 µM

Oc1cc(O)c2c(c1)O[C@H](c1ccc(O)c(O)c1)[C@@H](O)C2 [CIANIDANOL]
IC50 [9]: 1440 µM | IC50 [10]: 2930 µM

CCOC(=O)c1c(C)nn(-c2ccccc2)c1-c1ccc(N(C)C)cc1
inhibition [14]: 22.2 to 49.9%

O=C(/C=C/c1cn(-c2ccccc2)nc1-c1ccc(F)cc1)c1cccc(NC(=O)c2ccc(F)cc2)c1
Activity [5]: 32.4 to 77.9% | Activity [6]: 33.3%
